Legend:
[1] = biological target: CDK-2 enzyme, complexed with cyclin A (Homo sapiens, UniProt P24941); assay: CDK2 enzyme inhibition assay (33P phosphorylation of peptide […], filter plate); format: biochemical; details: CDK-2/cyclin A, 0.1 mM ATP, 40 min at 30° C.
Experimental: (§1) The assay mixture containing the inhibitor and CDK-2 enzyme, complexed with cyclin A (0.4 U/ml) was mixed together in a microtiter plate in a final volume of 50 μl and incubated for 40 min at 30° C. The assay mixture contained 0.1 mM unlabeled ATP, 0.01 μCi/μl ^33P-γ-ATP, 0.03 mM peptide, 0.1 mg/ml BSA, 7.5 mM magnesium acetate, 50 mM HEPES-NaOH, pH 7.5. The reaction was stopped by adding 50 μl of 50 mM phosphoric acid. 90 μl of the mixture were transferred to a pre-wetted 96-well Multiscreen MAPHNOB filtration plate (Millipore) and filtered on a vacuum manifold. […] The filtration plate was dried for 10 min at 65° C., scintillant added and phosphorylated peptide quantified in a scintillation counter (Trilux, PerkinElmer)
HEPES is N-[2-Hydroxyethyl]piperazine-N′-[2-ethanesulfonic acid] BSA is bovine serum albumin.

PDK1 enzyme = biological target: T1, PDK1 enzyme (Homo sapiens, UniProt O15530); assay: PDK1 kinase inhibition assay (33P phosphorylation of synthetic peptide, filter plate); format: biochemical; details: 0.01 mM ATP, 60 min at 30° C.; read-out: PDK1 IC50
T1 sequence (O15530 1-556): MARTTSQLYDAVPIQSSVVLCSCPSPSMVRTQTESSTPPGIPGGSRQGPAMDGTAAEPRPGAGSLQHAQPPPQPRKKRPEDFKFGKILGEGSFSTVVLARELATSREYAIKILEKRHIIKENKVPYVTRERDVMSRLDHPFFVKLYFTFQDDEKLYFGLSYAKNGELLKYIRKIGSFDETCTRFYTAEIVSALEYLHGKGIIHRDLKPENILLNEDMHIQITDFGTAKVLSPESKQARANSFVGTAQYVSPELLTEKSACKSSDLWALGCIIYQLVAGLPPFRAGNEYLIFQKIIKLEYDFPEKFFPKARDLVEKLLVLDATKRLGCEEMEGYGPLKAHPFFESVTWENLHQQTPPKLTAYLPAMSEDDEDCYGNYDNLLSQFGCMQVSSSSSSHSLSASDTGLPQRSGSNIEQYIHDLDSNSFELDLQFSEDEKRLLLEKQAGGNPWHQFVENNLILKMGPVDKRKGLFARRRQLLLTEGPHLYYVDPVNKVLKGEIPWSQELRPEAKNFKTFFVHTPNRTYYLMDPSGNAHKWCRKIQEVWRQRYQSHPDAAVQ
Experimental: as §1, with “and PDK1 enzyme” for “and CDK-2 enzyme, complexed with cyclin A (0.4 U/ml)”, “for 60” for “for 40”, “contained 0.01” for “contained 0.1”, “^33P-γ-ATP, 0.075” for “^33P-γ-ATP, 0.03”, “acetate, 0.05M Tris.HCl,” for “acetate, 50 mM HEPES-NaOH,”, “pH 7.5, 0.5% 2-mercaptoethanol.” for “pH 7.5.”

SMILES | IC50 [1] [nM] | IC50 (PDK1 enzyme) [µM]
CN1CCN(S(=O)(=O)c2ccc(Nc3cc(Cl)nc4c(Br)cnn34)cc2)CC1 [Example 139] | 176 | > 50
CC(C)c1cnn2c(Nc3ccc(S(=O)(=O)N(C)C)cc3)cc(CO)nc12 [Example 146] | 546 | 
O=S(=O)(c1ccc(Nc2cc(N[C@H]3CC[C@H](O)CC3)nc3c(Br)cnn23)cc1)N1CCCC1 [Example 176] | 183 | 3.25
CCc1cnn2c(Nc3ccc(S(=O)(=O)N4CCCC4)cc3)cc(Cl)nc12 [Example 142] | 66 | > 200
Clc1cc(NCc2ccncc2)n2ncc(Br)c2n1 [Example 161] | 230 | 
CS(=O)(=O)c1ccc(Nc2cc(Cl)nc3c(Br)cnn23)cc1 [Example 144] | 230 | > 50
CN(C)S(=O)(=O)c1ccc(Nc2cc(N[C@H]3CC[C@H](N)CC3)nc3ccnn23)cc1 [Example 169] | 98 | 3.36
CC(C)c1cnn2c(Nc3ccc(S(=O)(=O)N(C)C)cc3)cc(CN3CCC(O)CC3)nc12 [Example 170] | 1800 | > 200
CCc1cnn2c(Nc3ccc(S(=O)(=O)Nc4nccs4)cc3)cc(Cl)nc12 [Example 151] | 110 | 38
O=S(=O)(c1ccccc1)c1ccc(Nc2cc(Cl)nc3c(Br)cnn23)cc1 [Example 136] | 204 | 16
CC(C)c1cnn2c(NC3CCN(C(=O)OC(C)(C)C)CC3)cc(Cl)nc12 [Example 153] | 3440 | 
O=S(=O)(c1ccccc1)c1ccc(Nc2cc(N[C@H]3CC[C@H](O)CC3)nc3c(Br)cnn23)cc1 [Example 182] | 248 | 3
Clc1cccc(Nc2cc(Cl)nc3c(Br)cnn23)c1 [Example 160] | 108 | 
CC(C)c1cnn2c(Nc3ccc(S(=O)(=O)N(C)C)cc3)cc(N3CCC(N)C3)nc12 (centres unmarked) [Example 129] | 1970 | 
CCc1cnn2c(Nc3ccc(S(=O)(=O)N(C)C)cc3)cc(NC3CC(C)(C)NC(C)(C)C3)nc12 [Example 175] | 22200 | 12.9
CC(C)c1cnn2c(Nc3ccc(S(=O)(=O)N(C)C)cc3)cc(C(=O)N3CCC(CN)CC3)nc12 [Example 131] | 9370 | 
CN(C)S(=O)(=O)c1ccc(Nc2cc(N[C@H]3CC[C@@H](N)CC3)nc3c(S(C)(=O)=O)cnn23)cc1 [Example 200] | 11200 | 
CS(=O)(=O)c1ccc(Nc2ccnc3ccnn23)cc1 [Example 19] | 10400 | > 200
CC1(C)CC(Nc2cc(Nc3ccc(S(=O)(=O)N4CCCC4)cc3)n3ncc(Br)c3n2)CC(C)(C)N1 [Example 179] | 24000 | 4.54
CC(C)c1cnn2c(Nc3ccc(S(=O)(=O)N(C)C)cc3)cc(Cl)nc12 [Example 27] | 240 | 
N[C@H]1CC[C@H](Nc2cc(Nc3ccc(Oc4cccnc4)cc3)n3ncc(Cl)c3n2)CC1 [Example 189] | 28 | 
CC(C)c1cnn2c(Nc3ccc(S(=O)(=O)N(C)CCN(C)C)cc3)cc(Cl)nc12 [Example 68] | 52 | 
N[C@H]1CC[C@H](Nc2cc(Nc3ccc(Oc4ccc(F)cc4)cc3)n3ncc(Cl)c3n2)CC1 [Example 190] | 46 | 
N[C@H]1CC[C@@H](Nc2cc(Nc3ccc(S(=O)(=O)Nc4nccs4)cc3)n3ncc(Br)c3n2)CC1 [Example 177] |  | 0.66
CNC(=O)C1CCN(C(=O)c2cc(Nc3ccc(S(=O)(=O)N(C)C)cc3)n3ncc(C(C)C)c3n2)CC1 [Example 133] | 5170 | 
CN(C)S(=O)(=O)c1ccc(Nc2cc(O[C@H]3CC[C@H](N)CC3)nc3c(Br)cnn23)cc1 [Example 158] | 5 | 
CC(C)c1cnn2c(Nc3ccc(S(=O)(=O)N(C)C)cc3)cc(C(=O)N3CCC(N4CCCC4)CC3)nc12 [Example 130] | 12200 | 
CC(C)c1cnn2c(NC3CCN(S(=O)(=O)C(C)C)CC3)cc(Cl)nc12 [Example 159] | 1170 | 
O=S(=O)(c1ccc(Nc2cc(Cl)nc3c(Cl)cnn23)cc1)c1cccs1 [Example 188] | 89 | 

— patent US20070179161A1, “Pyrazolopyrimidine compounds and their use in medicine” (VERNALIS (CAMBRIDGE) LIMITED., priority 2003, published 2007)
